# Laboratory results published in patent US20230293573A1 (priority 2020, published 2023).
# Read-outs that look alike come from different tables or passages of the source.
# Tests used:
# [1] = test system: prostate cancer cell (PC-3); experiment: Inhibitory efficacy against prostate cancer cell PC-3; type: cell-based; settings: estimated from dose-efficacy curve, FIG. 7
# SARS-CoV-2 [2] = settings: Gassen et al. (2020); read-out: IC50 against SARS-CoV-2; cited from earlier work
# SARS-CoV-2 [3] = experiment: microbe, parasite or virus in culture; type: cell-based; settings: Severe acute respiratory syndrome coronavirus 2; Gassen et al. (2020); read-out: IC50 against SARS-CoV-2
# [4] = cited from earlier work
# SARS-CoV-2 [5] = experiment: Anti-SARS-CoV-2 efficacy in Vero cells (Jeon et al. 2020); type: cell-based; settings: Severe acute respiratory syndrome coronavirus 2, Vero; for IC90: read-out: IC90 against SARS-CoV-2
# [6] = phosphate buffer, depending on temperature of measurement; cited from earlier work
# TMEM16F/Anoctamin6 = target: T1, TMEM16F/Anoctamin6 (Homo sapiens, UniProt Q4KMQ2); settings: Spike-expressing cells; cited from earlier work
# T1 sequence (Q4KMQ2 1-910): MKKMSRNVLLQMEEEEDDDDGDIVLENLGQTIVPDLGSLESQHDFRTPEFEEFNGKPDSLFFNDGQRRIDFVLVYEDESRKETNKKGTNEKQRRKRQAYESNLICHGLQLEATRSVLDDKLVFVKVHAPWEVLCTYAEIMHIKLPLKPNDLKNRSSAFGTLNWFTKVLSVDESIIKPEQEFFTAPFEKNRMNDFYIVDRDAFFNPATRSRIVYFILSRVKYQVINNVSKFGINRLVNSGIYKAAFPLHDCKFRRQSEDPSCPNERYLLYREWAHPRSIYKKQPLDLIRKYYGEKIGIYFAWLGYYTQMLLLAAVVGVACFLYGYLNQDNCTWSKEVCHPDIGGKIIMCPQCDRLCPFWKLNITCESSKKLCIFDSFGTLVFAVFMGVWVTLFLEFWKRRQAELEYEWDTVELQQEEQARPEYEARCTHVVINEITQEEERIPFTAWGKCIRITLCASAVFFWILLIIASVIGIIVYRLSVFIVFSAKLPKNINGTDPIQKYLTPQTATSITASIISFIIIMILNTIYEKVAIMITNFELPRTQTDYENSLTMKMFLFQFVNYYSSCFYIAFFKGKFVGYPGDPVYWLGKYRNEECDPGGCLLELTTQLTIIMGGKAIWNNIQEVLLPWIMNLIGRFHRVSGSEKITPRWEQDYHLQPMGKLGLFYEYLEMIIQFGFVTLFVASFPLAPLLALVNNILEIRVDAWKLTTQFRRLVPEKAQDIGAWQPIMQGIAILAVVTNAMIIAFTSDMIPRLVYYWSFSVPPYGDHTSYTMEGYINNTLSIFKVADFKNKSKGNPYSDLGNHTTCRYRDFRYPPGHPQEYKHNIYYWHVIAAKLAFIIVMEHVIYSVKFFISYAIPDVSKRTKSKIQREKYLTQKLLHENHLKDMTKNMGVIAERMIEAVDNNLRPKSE
# [7] = Solubilization and dispersion of niclosamide by OHPP; settings: 2.5 mg/mL niclosamide in phosphate buffer
# [8] = cited from earlier work; remark: listed apart in the source
# [9] = rats, single oral dose 5 mg/kg, dissolved in DMSO/cremophor EL/water 3/15/82; cited from earlier work
smiles,measurement,setting,value
"O=C(Nc1ccc([N+](=O)[O-])cc1Cl)c1cc(Cl)ccc1O [niclosamide, 2′,5-Dichloro-4′-nitrosalicylanilide]",IC50,[1],5.93 µg/mL
same,IC50,SARS-CoV-2 [2],170 nM
same,IC50,SARS-CoV-2 [3],0.056 µg/mL
same,BCS solubility,[4],low solubility
same,solubility definition,"[4]; delMoral-Sanchez et al., 2019",practically insoluble
same,IC90,SARS-CoV-2 [5]; read from FIG. 2 (Jeon et al. 2020),~700 nM
same,IC50,SARS-CoV-2 [5]; read-out: IC50 against SARS-CoV-2,0.092 µg/mL
same,IC90,SARS-CoV-2 [5],~0.229 µg/mL
same,solubility,[6],0.3 to 1.14 µg/mL
same,effect on calcium oscillations and membrane conductances through TMEM16F,TMEM16F/Anoctamin6,markedly blunted calcium oscillations and membrane conductances
same,appearance of dispersion,[7],did not dissolve and showed heavy clouds and precipitates
same,maximal plasma concentration,[8]; 500 mg TID,35.7 to 182 ng/mL
same,side effects,"[8]; 500 or 1000 mg TID oral, 4 weeks",mostly associated with the GI tract
same,"maximal plasma concentration, highest level reached","[8]; 500 or 1000 mg TID, 4 weeks",182 ng/mL
same,highest plasma concentration (Cmax),[9],354 ± 152 ng/mL
